{"source": "patent EP0314302A2", "about": "“Herbicidal o-carbomethoxy-sulfonylureas” (E.I. DU PONT DE NEMOURS AND COMPANY, priority 1987, dated 1989)", "key": {"Bindweed": {"tested_on": "Bindweed", "test": "Test 9 postemergence", "assay_type": "in vivo, Convolvulus spp", "settings": "16 g/ha, scale 0-100", "method": "Plastic windowsill pots containing planting medium were seeded with bahiagrass, bindweed (Convolvulus spp), guinea grass (Panicum maximum), large crabgrass (Digitaria sanguinalis) and pigweed (Amaranthus spp). Individual 15-cm plastic pots contained sandbur (Cenchrus echinatus), Mikania cordata, Boston fern (Nephrolepis exalata), quackgrass (Agropyron repens), elephantgrass (Pennisetum purpureum) and sowthistle (Sonchus spp) plants.\nPlants were treated postemergence with Compound I formulated in a non-phytotoxic solvent. Plants were visually rated 22 days after treatment (DAT). Injury and weed control ratings were based on the scale of 0 to 100 where 0 = no effect, 20 = minimal control and 100 = complete control."}, "Matricaria": {"tested_on": "Matricaria", "test": "Test 7 postemergence", "assay_type": "in vivo, Matricaria spp", "settings": "scale 0-100", "method": "Individual 11.4-cm plastic pots filled with planting medium were seeded with rape, wild radish (Raphanus raphanistruna). tansy mustard (Descurainia pinnata), ball mustard (Neslia paniculata), black mustard (Brassica nigra), yellow mustard, brown mustard, lentils, safflower, flax, sunflower, peanut, vetch, alfalfa, field bean, pea, violet (Viola spp), Kochia (Kochia spp), Russian thistle (Salsola spp), Matricaria spp, groundsel (Senecio spp), shepherdspurse (Capsella bursa-pastoris), nightshade (Solanum spp), sowthistle (Sonchus spp), sugar beet, wheat, \"Bonanza\" barley and \"Morex\" barley, Kentucky bluegrass (Poa pratensis), red clover (Trifolium pratense), dandelion (Taraxacum spp) and buckhorn plantain (Plantago lanceolata).\nPlants were treated postemergence with the compound formulated with a non-phytotoxic carrier. Plants were visually rated 18 days after treatment (DAT). Response ratings were based on the scale of 0 to 100 where 0 = no effect, 20 = minimal injury and 100 = complete control."}, "Green foxtail": {"tested_on": "Green foxtail", "test": "Test 10 postemergence safety to crops and weed control", "assay_type": "in vivo, Setaria viridis", "settings": "16 g/ha, scale 0-100", "method": "The object of these tests was to evaluate the compound of this invention for postemergence safety to crops and weed control. Seedling and budded Macedine grapes were grown in 11.4-cm pots. Flax, green foxtail (Setaria viridis), \"Morex\" barley, wild oats (Avena fatua), \"Era\" wheat, annual ryegrass (Lolium multiflorum), wild radish (Raphanus raphanistrum), rape, sunflower, chickweed (Stellaria media) and wild buckwheat (Polygonum convolvulus) were seeded in windowsill pots.\nThe plants were sprayed postemergence with Compound I in a non-phytotoxic solvent. Plants were visually rated 15 and 27 days after treatment (DAT). Injury and weed control ratings were based on the scale of 0 to 100 where 0 = no effect, 20 minimal control and 100 = complete control."}, "Crabgrass": {"tested_on": "Crabgrass", "test": "Test 3 postemergence weed control", "assay_type": "in vivo, Digitaria spp", "settings": "scale 0-100", "method": "Seeds of crabgrass (Digitaria spp), guinea grass (Panicum maximum) and narrowleaf panicum (P. maximum) were planted in 15-cm plastic pots. The weeds were treated postemergence with compound I, formulated in a non-phytotoxic solvent, when the plants had 3 or more leaves and had tillered. The degree of weed control was visually rated 17 days after compound application (DAT). Control ratings were based on a scale of 0 to 100 where 0 = no effect, 20 = minimal control and 100 = complete control."}, "Yellow nutsedge": {"tested_on": "Yellow nutsedge", "test": "Test 11 citrus pots, preemergence to the weeds", "assay_type": "in vivo, Cyperus esculentus", "settings": "Preemergence 32 g/ha; 0.25% X-77 surfactant; scale 0-100", "method": "Budded citrus seedlings were planted in 30-liter plastic pots which were also seeded with sandbur, guineagrass, narrowleaf panicum, common ragweed, yellow nutsedge, purple nutsedge and bindweed. Compound I was applied preemergence and postemergence to the weeds. Treatments were sprayed to simulate the trunk-to-trunk herbicide application method used in some citrus groves. The compound was also applied postemergence to weeds grown in windowsill flats. The flats were filled with planting medium and seeded with morningglory (Ipomoea spp.). purple nutsedge (Cyperus rotundus), pigweed (Amaranthus spp.), bindweed (Convolvulus spp.), narrowleaf panicum (Panicum maximum), common ragweed (Ambrosia artemisiifolia), sandbur (Cenchrus echinatus), itchgrass (Rottboellia exaltata), johnsongrass (Sorghum halepense), guineagrass (Panicum maximum), smooth crabgrass (Digitaria ischaemum), broadleaf signalgrass (Brachiaria platyphylla), bermudagrass (Cynodon dactylon), goosegrass (Eleusine indica), large crabgrass (Digitaria sanguinalis) and yellow nutsedge (Cyperus esculentus).\nThe compound was formulated and sprayed with 0.25% X-77 surfactant in water. Plants were visually rated 21 and 29 days after treatment and compared with appropriate controls. Injury ratings were based on the scale of 0 to 100, where 0 indicates no effect, 20 indicates minimum effect and 100 indicates complete control. […]"}, "Lalang": {"tested_on": "Lalang", "test": "Test 4 plantation crop weeds, postemergence", "assay_type": "in vivo, Imparata cylindrica", "settings": "Table 8, scale 0-100", "text": "The object of this test was to evaluate the efficacy of the compound of this invention on weeds that infest some plantation crops at different growth stages of the weeds. Asystasia intrusa, Mikania cordata, goldenrod Solidago spp, Boston fern Nephrolepis exalata, and lalang Imparata cylindrica were planted in 15-cm plastic pots. Plants were sprayed postemergence with Compound I in a non-phytotoxic solvent. The Asystasia plants ranged in growth from 4 leaves to 9 leaves and very branched, Mikania had 6 leaves to vining, the goldenrod was branching and the Boston fern was growing vigorously. The degree of weed control was visually rated 20 to 24 days after treatment (DAT). Control ratings are based on the scale of 0 to 100 where 0 = no effect, 20 = minimal control and 100 = complete control. Variations in the results of the tests could be due to the fact that the tests were run at different times of the year or due to the stage of growth of the weeds."}}, "data": [{"smiles": "COC(=O)c1cccnc1S(=O)(=O)NC(=O)Nc1nc(OC)cc(OC)n1", "note": "[Compound I, 2-[[(4,6-dimethoxypyrimidin-2-yl)aminocarbonyl]aminosulfonyl]-3-pyridinecarboxylic acid, methyl ester]", "values": [{"measurement": "Plant Injury Rating 22 DAT", "setting": "Bindweed", "result": 70}, {"measurement": "Plant Injury Rating 18 DAT", "setting": "Matricaria; 16 g/ha", "result": 100}, {"measurement": "Plant Injury Rating 18 DAT", "setting": "Matricaria; 32 g/ha", "result": 100}, {"measurement": "Plant Injury Rating 15 DAT", "setting": "Green foxtail", "result": 100}, {"measurement": "Control Rating 17 DAT", "setting": "Crabgrass; 8 g/ha", "result": 50}, {"measurement": "Control Rating 17 DAT", "setting": "Crabgrass; 16 g/ha", "result": 70}, {"measurement": "Control Rating 17 DAT", "setting": "Crabgrass; 32 g/ha", "result": 100}, {"measurement": "Injury ratings", "setting": "Yellow nutsedge", "result": 100}, {"measurement": "Control Rating 22 DAT", "setting": "Lalang; 16 g/ha", "result": 20}, {"measurement": "Control Rating 22 DAT", "setting": "Lalang; 32 g/ha", "result": 20}, {"measurement": "Control Rating 22 DAT", "setting": "Lalang; 64 g/ha", "result": 40}]}]}
